{
  "source": "patent US20140005163A1",
  "about": "(NOVARTIS AG, priority 2010, published 2014)",
  "key": {"[1]": {"test_system": "PKB Ser473 phosphorylation in Rat1-myr-HA-p110 beta cells", "assay": "Reverse protein array assay, PKB Ser473 phosphorylation in Rat1-myr-p110 beta cells", "assay_type": "cell-based", "settings": "0.5 h, pAkt Ser473, 30 minutes incubation, read-out: p-PKB IC50", "method_in_brief": "(§1)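 Compound exposure lasted 30 min in Rat1 cells bearing membrane-targeted HA-p110 isoforms, using 8 serial concentrations. Arrayed lysates, each spotted at four dilutions, gave relative fluorescence signals for phospho-Ser473 PKB.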"}, "[2]": {"target": "T1, PI3K alpha (Homo sapiens, UniProt P42336)", "T1 construct": "p85(iSH2) fusion partner (see partner chain) (N); His tag (C); made in house; host or cells: baculovirus; Tn5 (Trichoplusia ni) or TiniPro insect cells", "T1 sequence (P42336 with tags, fused parts or gaps limits assumed)": "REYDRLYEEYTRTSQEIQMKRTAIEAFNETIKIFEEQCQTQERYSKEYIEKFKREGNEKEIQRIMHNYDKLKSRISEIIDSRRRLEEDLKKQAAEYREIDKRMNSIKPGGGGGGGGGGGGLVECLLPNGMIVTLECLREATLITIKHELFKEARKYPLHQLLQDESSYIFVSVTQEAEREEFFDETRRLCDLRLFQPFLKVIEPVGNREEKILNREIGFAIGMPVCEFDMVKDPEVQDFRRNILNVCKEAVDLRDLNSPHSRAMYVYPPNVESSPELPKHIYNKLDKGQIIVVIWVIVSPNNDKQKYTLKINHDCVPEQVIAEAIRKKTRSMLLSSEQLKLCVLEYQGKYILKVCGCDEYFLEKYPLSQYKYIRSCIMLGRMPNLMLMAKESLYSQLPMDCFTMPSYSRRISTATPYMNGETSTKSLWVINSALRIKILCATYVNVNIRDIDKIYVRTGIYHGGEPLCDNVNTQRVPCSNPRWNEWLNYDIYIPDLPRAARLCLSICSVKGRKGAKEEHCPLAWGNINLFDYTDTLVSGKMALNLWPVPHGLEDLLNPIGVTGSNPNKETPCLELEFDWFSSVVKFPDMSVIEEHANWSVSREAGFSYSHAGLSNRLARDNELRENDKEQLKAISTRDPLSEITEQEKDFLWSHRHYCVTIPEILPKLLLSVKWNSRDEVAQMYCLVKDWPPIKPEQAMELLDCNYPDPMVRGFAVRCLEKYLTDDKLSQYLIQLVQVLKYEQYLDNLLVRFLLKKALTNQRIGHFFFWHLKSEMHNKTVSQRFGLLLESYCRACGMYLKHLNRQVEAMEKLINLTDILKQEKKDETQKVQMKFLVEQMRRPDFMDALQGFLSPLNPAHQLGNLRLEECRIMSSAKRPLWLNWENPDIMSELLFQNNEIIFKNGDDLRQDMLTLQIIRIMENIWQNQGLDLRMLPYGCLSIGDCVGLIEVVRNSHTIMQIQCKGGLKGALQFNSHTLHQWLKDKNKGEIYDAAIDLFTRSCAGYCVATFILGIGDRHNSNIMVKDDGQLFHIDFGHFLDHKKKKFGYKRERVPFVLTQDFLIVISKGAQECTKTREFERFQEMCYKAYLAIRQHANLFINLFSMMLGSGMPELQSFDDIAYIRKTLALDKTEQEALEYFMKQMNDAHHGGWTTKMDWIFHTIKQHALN", "assay": "PI3K alpha kinase assay (Kinase-Glo luminescence)", "assay_type": "biochemical", "method_in_brief": "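PI3Kα construct EMV B1075 (10 nM final) was preincubated with 10 μg/mL phosphatidylinositol in 10 mM Tris-HCl pH 7.5, 3 mM MgCl2, 50 mM NaCl, 0.05% CHAPS, 1 mM DTT. Reaction started with 1 μM ATP, 60 min at room temperature; remaining ATP measured by Kinase-Glo luminescence. IC50 from 4-parameter logistic fit of 8-point titrations.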"}, "[3]": {"target": "T2, PI3K delta (Homo sapiens, UniProt O00329)", "T2 construct": "for the full-length p110-d subunit are generated and fused by overlapping PCR; p85(iSH2) fusion partner (see partner chain) (N); His tag (C); made in house; host or cells: baculovirus; Tn5 (Trichoplusia ni) or TiniPro insect cells", "T2 sequence (O00329 with tags, fused parts or gaps limits assumed)": "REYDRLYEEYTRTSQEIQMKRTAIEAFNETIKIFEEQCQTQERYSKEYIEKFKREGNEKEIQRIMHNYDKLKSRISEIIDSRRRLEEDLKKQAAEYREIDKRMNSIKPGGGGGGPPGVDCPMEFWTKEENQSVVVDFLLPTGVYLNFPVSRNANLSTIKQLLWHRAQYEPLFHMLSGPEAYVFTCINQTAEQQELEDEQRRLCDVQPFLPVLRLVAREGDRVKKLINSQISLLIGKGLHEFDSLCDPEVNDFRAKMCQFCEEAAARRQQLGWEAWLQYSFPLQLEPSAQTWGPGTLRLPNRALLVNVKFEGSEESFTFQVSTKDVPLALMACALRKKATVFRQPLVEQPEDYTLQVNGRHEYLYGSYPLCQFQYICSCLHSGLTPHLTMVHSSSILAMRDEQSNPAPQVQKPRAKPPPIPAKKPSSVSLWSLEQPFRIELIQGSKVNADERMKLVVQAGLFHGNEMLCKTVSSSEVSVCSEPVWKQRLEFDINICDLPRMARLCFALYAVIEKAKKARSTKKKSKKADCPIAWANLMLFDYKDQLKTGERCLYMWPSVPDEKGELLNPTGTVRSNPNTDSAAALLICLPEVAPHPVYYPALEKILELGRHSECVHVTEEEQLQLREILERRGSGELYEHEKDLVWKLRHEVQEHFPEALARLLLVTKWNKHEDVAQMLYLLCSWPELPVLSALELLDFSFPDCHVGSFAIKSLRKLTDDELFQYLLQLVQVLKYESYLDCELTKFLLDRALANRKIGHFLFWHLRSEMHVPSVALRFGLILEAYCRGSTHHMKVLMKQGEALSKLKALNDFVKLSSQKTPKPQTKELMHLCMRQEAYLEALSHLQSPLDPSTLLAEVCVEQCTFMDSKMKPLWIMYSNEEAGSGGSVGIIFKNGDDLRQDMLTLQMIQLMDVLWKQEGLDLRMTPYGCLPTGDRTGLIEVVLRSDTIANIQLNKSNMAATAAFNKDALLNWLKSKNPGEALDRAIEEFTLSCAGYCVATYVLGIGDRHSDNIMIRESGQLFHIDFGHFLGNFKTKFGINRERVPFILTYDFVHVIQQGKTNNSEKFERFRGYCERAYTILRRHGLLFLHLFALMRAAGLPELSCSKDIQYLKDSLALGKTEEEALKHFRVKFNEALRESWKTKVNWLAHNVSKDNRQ", "assay": "PI3K delta kinase assay (Kinase-Glo luminescence)", "assay_type": "biochemical", "method_in_brief": "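Recombinant p85(iSH2)-Gly linker-p110δ full-length construct (BV1060, C-terminal His tag) was used at 10 nM with 10 μg/mL phosphatidylinositol and 1 μM ATP in 10 mM Tris-HCl pH 7.5, 3 mM MgCl2, 50 mM NaCl, 0.05% CHAPS, 1 mM DTT. After 60 min at room temperature, remaining ATP was measured by Kinase-Glo luminescence.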"}, "[4]": {"test_system": "PKB Ser473 phosphorylation in Rat1-myr-HA-p110 delta cells", "assay": "Reverse protein array assay, PKB Ser473 phosphorylation in Rat1-myr-p110 delta cells", "assay_type": "cell-based", "settings": "read-out: p-PKB IC50", "method_in_brief": "as §1"}, "[5]": {"target": "T3, PI3K beta (Homo sapiens, UniProt P42338)", "T3 construct": "for the full-length p110-b subunit are generated and fused by overlapping PCR; p85(iSH2) fusion partner (see partner chain) (N); His tag (C); made in house; host or cells: baculovirus; Tn5 (Trichoplusia ni) or TiniPro insect cells", "T3 sequence (P42338 with tags, fused parts or gaps limits assumed)": "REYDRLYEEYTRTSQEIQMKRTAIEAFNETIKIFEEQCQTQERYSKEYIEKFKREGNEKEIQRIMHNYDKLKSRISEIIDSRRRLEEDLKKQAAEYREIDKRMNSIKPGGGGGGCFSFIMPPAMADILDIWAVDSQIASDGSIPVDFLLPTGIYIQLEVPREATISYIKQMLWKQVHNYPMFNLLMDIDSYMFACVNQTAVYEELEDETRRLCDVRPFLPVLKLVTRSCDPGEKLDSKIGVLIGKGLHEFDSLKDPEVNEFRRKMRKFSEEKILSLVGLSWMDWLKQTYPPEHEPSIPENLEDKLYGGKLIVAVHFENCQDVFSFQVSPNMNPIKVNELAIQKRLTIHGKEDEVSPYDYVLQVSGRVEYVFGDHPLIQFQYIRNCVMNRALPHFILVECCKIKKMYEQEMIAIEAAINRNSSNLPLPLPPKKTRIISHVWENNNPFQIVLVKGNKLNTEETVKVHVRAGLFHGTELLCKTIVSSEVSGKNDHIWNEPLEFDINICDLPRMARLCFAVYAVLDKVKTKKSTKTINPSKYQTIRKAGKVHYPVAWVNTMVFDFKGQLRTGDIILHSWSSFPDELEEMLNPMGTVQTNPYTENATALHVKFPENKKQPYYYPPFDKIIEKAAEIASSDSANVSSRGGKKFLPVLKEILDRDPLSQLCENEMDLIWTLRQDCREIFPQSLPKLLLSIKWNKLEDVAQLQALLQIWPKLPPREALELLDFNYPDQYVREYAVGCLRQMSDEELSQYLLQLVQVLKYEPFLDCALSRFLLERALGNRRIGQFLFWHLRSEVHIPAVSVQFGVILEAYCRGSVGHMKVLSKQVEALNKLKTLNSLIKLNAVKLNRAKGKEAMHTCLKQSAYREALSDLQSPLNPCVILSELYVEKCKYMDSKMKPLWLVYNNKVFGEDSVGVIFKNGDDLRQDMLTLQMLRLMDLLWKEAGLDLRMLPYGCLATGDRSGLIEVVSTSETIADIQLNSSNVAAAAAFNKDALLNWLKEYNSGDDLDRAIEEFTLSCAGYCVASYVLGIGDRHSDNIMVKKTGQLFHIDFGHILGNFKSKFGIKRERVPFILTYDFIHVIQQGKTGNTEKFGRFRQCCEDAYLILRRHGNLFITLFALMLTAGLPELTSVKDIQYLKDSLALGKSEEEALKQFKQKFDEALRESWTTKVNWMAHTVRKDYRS", "assay": "PI3K beta kinase assay (Kinase-Glo luminescence)", "assay_type": "biochemical", "method_in_brief": "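IC50 is derived by four-parameter logistic curve fitting of Kinase-Glo luminescence, which measures ATP left after a 60 min room-temperature reaction. Conditions are 25 nM His-tagged p85(iSH2)-p110β, 1 μM ATP and 10 μg/mL bovine liver phosphatidylinositol.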"}},
  "data": [
    {"smiles": "CCOC(C)(C)c1cncc(-c2ccc3ncc4c(c3c2)n(-c2cn(C)nc2C)c(=O)n4C)c1", "note": "[Example 240, 1-(1,3-Dimethyl-1H-pyrazol-4-yl)-8-[5-(1-ethoxy-1-methyl-ethyl)-pyridin-3-yl]-3-methyl-1,3-dihydro-imidazo[4,5-c]quinolin-2-one]", "values": [
      {"measurement": "IC50", "setting": "[1]", "value": 128, "unit": "nM"},
      {"measurement": "IC50", "setting": "[2]", "value": 6, "unit": "nM"},
      {"measurement": "IC50", "setting": "[3]", "value": "< 3", "unit": "nM"},
      {"measurement": "IC50", "setting": "[4]", "value": 131, "unit": "nM"},
      {"measurement": "IC50", "setting": "[5]", "value": 91, "unit": "nM"}
    ]},
    {"smiles": "C=CCn1c(=O)n(-c2cn(C)nc2C)c2c3cc(-c4cncc(N)c4)ccc3ncc21", "note": "[Example 246, 3-Allyl-8-(5-amino-pyridin-3-yl)-1-(1,3-dimethyl-1H-pyrazol-4-yl)-1,3-dihydro-imidazo[4,5-c]quinolin-2-one]", "values": [
      {"measurement": "IC50", "setting": "[1]", "value": 294, "unit": "nM"},
      {"measurement": "IC50", "setting": "[2]", "value": 28, "unit": "nM"},
      {"measurement": "IC50", "setting": "[3]", "value": 10, "unit": "nM"},
      {"measurement": "IC50", "setting": "[4]", "value": 837, "unit": "nM"},
      {"measurement": "IC50", "setting": "[5]", "value": 82, "unit": "nM"}
    ]}
  ]
}
